# PubChem BioAssay (NCI)
#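 A five-concentration, 48-hour dose response in 96-well plates underlies each endpoint, interpolated linearly between surrounding concentrations. Definition used: TGI = concentration required for complete inhibition of growth.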
# System: OVCAR-5 ovarian
# Test: NCI tumour cell line growth inhibition, 48 h
row,SMILES,TGI [µM]
1,NC(=O)C(N)Cc1ccc(O)cn1 (stereo not drawn),> 100
2,COC(=O)C(C)(NC(=O)C(CC(=O)OC(C)(C)C)NC(=O)OC(C)(C)C)c1ccccc1 (stereo not drawn),> 100
3,COc1ccc(N=C2SC(=N/N=c3\sc4ccccc4n3C)SC2=Nc2ccc(OC)cc2)cc1,> 100
4,CCOC(=O)C1=CC(C)(C(=O)OCC)Nc2c(nc(OC)n(C)c2=O)N1 (stereo not drawn),> 10
5,S=C(c1c[nH]c2ccccc12)N1CCOCC1,> 100
6,CNc1ccc(OC)cc1S(=O)(=O)c1ccccc1[N+](=O)[O-],> 100
7,CC1(CCCO)CCCCCC(C)(CCCO)C1=O (stereo not drawn),> 100
8,COC(C)(C)C1=CCC(C)CC1 (stereo not drawn),> 100
9,C=C1CC(c2ccc(OCCCN3C(=O)c4ccccc4C3=O)c(OC)c2)OC1=O (stereo not drawn),31.9

# System: PC-3 prostate
# Test: NCI tumour cell line growth inhibition, 48 h
row,SMILES,TGI [µM]
1,CC1CC(N)=Nc2ccccc2N1 (stereo not drawn),> 100
2,O=C(O)c1n[nH]nc1Cl,> 100
3,CN(c1ccc(Cl)cc1)S(=O)(=O)c1cccc([N+](=O)[O-])c1,> 100
4,CCC(=O)NC(Nc1cccc(F)c1C)(C(F)(F)F)C(F)(F)F,> 100
5,Cc1cc2nc3c(C#N)c(-c4ccccc4)cc(Nc4ccc(Cl)cc4)n3c2cc1C,> 100
6,CN(c1ccc(Cl)cc1)S(=O)(=O)c1ccc([N+](=O)[O-])cc1,> 100
7,O=S1(=O)OCCOS(=O)(=O)C1F,> 100
8,O=c1[nH]c(-c2ccc3ccccc3c2)nc2ccccc12,> 100
9,CC(C)(C)C(=O)OCC1CCC[N+]2(C)CCCCC12 (stereo not drawn),> 100
10,COCCOCc1nc(C#N)c(N)o1,> 100
11,CN1C(=O)N/C(=C\c2ccc(S(=O)(=O)NN)cc2)C1=O,> 100
12,CN(C)Cc1cc(C(=O)/C=C/c2ccc(Cl)cc2)cc(CN(C)C)c1O,24.7
13,O=S(=O)(c1ccccc1)n1c2cc3cccnc3nc2c2cccnc21,> 100
14,Cc1cc(N(CCC#N)CCC#N)ccc1/C(N=Nc1ccc([N+](=O)[O-])cc1)=N\NC(=O)c1cc(Cl)ccc1C(=O)c1ccccc1,83.3
15,CC(=O)c1c2c(cc3c1CC1(Cc4ccccc4C1=O)C3)CCC2 (stereo not drawn),> 100
16,Cc1cccc(-c2nc3ccc([N+](=O)[O-])cc3c(=O)o2)c1,> 100
17,O=C1N=c2ccccc2=C1c1c(O)[nH]c2ccccc12,26.2
18,NC(N)=NCCN=C(N)N,> 100
19,NC(=O)C(N)Cc1ccc(O)cn1 (stereo not drawn),> 100
20,COC(=O)C(C)(NC(=O)C(CC(=O)OC(C)(C)C)NC(=O)OC(C)(C)C)c1ccccc1 (stereo not drawn),> 100
21,COc1ccc(N=C2SC(=N/N=c3\sc4ccccc4n3C)SC2=Nc2ccc(OC)cc2)cc1,> 100
22,CCOC(=O)C1=CC(C)(C(=O)OCC)Nc2c(nc(OC)n(C)c2=O)N1 (stereo not drawn),> 10
23,S=C(c1c[nH]c2ccccc12)N1CCOCC1,> 100
24,CNc1ccc(OC)cc1S(=O)(=O)c1ccccc1[N+](=O)[O-],> 100
25,CC1(CCCO)CCCCCC(C)(CCCO)C1=O (stereo not drawn),> 100
26,COC(C)(C)C1=CCC(C)CC1 (stereo not drawn),> 100
27,C=C1CC(c2ccc(OCCCN3C(=O)c4ccccc4C3=O)c(OC)c2)OC1=O (stereo not drawn),25.7

# System: RXF 393 renal
# Test: NCI tumour cell line growth inhibition, 48 h
row,SMILES,TGI [µM]
1,CC1CC(N)=Nc2ccccc2N1 (stereo not drawn),> 100
2,O=C(O)c1n[nH]nc1Cl,> 100
3,CN(c1ccc(Cl)cc1)S(=O)(=O)c1cccc([N+](=O)[O-])c1,> 100
4,CCC(=O)NC(Nc1cccc(F)c1C)(C(F)(F)F)C(F)(F)F,80.7
5,Cc1cc2nc3c(C#N)c(-c4ccccc4)cc(Nc4ccc(Cl)cc4)n3c2cc1C,> 100
6,CN(c1ccc(Cl)cc1)S(=O)(=O)c1ccc([N+](=O)[O-])cc1,> 100
7,O=S1(=O)OCCOS(=O)(=O)C1F,> 100
8,O=c1[nH]c(-c2ccc3ccccc3c2)nc2ccccc12,> 100
9,CC(C)(C)C(=O)OCC1CCC[N+]2(C)CCCCC12 (stereo not drawn),> 100
10,COCCOCc1nc(C#N)c(N)o1,> 100
11,CN1C(=O)N/C(=C\c2ccc(S(=O)(=O)NN)cc2)C1=O,> 100
12,CN(C)Cc1cc(C(=O)/C=C/c2ccc(Cl)cc2)cc(CN(C)C)c1O,30.3
13,O=S(=O)(c1ccccc1)n1c2cc3cccnc3nc2c2cccnc21,90.9
14,Cc1cc(N(CCC#N)CCC#N)ccc1/C(N=Nc1ccc([N+](=O)[O-])cc1)=N\NC(=O)c1cc(Cl)ccc1C(=O)c1ccccc1,57.9
15,CC(=O)c1c2c(cc3c1CC1(Cc4ccccc4C1=O)C3)CCC2 (stereo not drawn),59.1
16,Cc1cccc(-c2nc3ccc([N+](=O)[O-])cc3c(=O)o2)c1,> 100
17,O=C1N=c2ccccc2=C1c1c(O)[nH]c2ccccc12,16.3
18,NC(N)=NCCN=C(N)N,> 100
19,NC(=O)C(N)Cc1ccc(O)cn1 (stereo not drawn),> 100
20,COC(=O)C(C)(NC(=O)C(CC(=O)OC(C)(C)C)NC(=O)OC(C)(C)C)c1ccccc1 (stereo not drawn),> 100
21,COc1ccc(N=C2SC(=N/N=c3\sc4ccccc4n3C)SC2=Nc2ccc(OC)cc2)cc1,> 100
22,CCOC(=O)C1=CC(C)(C(=O)OCC)Nc2c(nc(OC)n(C)c2=O)N1 (stereo not drawn),> 10
